Test results reported in the C3SDB collision cross section collection.
Values joined by “and” are separate entries in the source; they are usually repeats but may differ in a detail not shown here. Equal values may be shown once.

details: [M+2Na-3H]-; instrument: DT; single field, calibrated with Agilent tune mix (Agilent)

collision cross section (N2) | Structure (SMILES)
162.06 Å² | C[C@@H]1NC(=O)N[C@@H]1CCCCCC(=O)O [Dethiobiotin]

same assay, conditions: [M+H-H2O]+; instrument: DT; single field, calibrated with Agilent tune mix (Agilent)

collision cross section (N2) | Structure (SMILES)
193.4 Å² | C[C@H](CCC(=O)O)[C@H]1CC[C@H]2[C@@H]3CC[C@@H]4C[C@H](O)CC[C@]4(C)[C@H]3CC[C@]12C [Lithocholic acid]
122.3 Å² | O=C(O)c1ccc(O)c(O)c1 [Protocatechuic acid]

same assay, conditions: [M+H]+; instrument: DT; single field, calibrated with Agilent tune mix (Agilent)

collision cross section (N2) | Structure (SMILES)
188.3 Å² | CCCCCCCCCCCCCCCCCC(N)=O [Stearamide]
136.9 Å² | CC(=O)N[C@@H](CCCN)C(=O)O [N2-Acetyl-L-ornithine]
159.6 Å² | O=C(O)CN(CCN(CC(=O)O)CC(=O)O)CC(=O)O [EDTA]
155.1 Å² | CC(C)CC(=O)NCC(=O)O [Isovalerylglycine]
132.4 Å² | O=C(O)c1c[nH]c2ccccc12 [Indole-3-carboxylic acid]
147.1 Å² | CCCCCCC(N)C(=O)O (racemic) [DL-2-Aminooctanoic acid]
134.1 Å² | O=C(O)/C=C/c1cnc[nH]1 [Urocanic acid]
144.1 Å² | C[C@@H]1NC(=O)N[C@@H]1CCCCCC(=O)O [Dethiobiotin]
244.7 Å² | CC(=O)SCCNC(=O)CCNC(=O)[C@H](O)C(C)(C)COP(=O)(O)OP(=O)(O)OC[C@H]1O[C@@H](n2cnc3c(N)ncnc32)[C@H](O)[C@@H]1OP(=O)(O)O [Acetyl-CoA]
139 Å² | NC(=NCCCC(N)C(=O)O)NO (centres undefined) [N-(omega)-Hydroxyarginine]
200.9 Å² | C[C@H](CCC(=O)NCC(=O)O)[C@H]1CC[C@H]2[C@@H]3CC[C@@H]4C[C@H](O)CC[C@]4(C)[C@H]3CC[C@]12C [Glycolithocholic acid]
171.4 Å² | Nc1ncnc2c1ncn2[C@@H]1O[C@H](COP(=O)(O)O)[C@@H](O)[C@H]1O [Adenosine monophosphate (AMP)]
164.2 Å² | Cn1cnc2c(ncn2[C@@H]2O[C@H](CO)[C@@H](O)[C@H]2O)c1=N [1-Methyladenosine]
166.7 Å² | O=c1c(O)c(-c2ccc(O)c(O)c2)oc2cc(O)cc(O)c12 [Quercetin]
121 Å² | c1ccc2[nH]ccc2c1 [Indole]
137.8 Å² | O=C(O)C(O)Cc1ccccc1 (racemic) [DL-3-Phenyllactic acid]
157.9 Å² | N[C@@H](CCSSCC[C@H](N)C(=O)O)C(=O)O (racemic) [DL-Homocystine]
185.1 Å² | O=C(/C=C/c1ccc(O)c(O)c1)O[C@@H]1C[C@](O)(C(=O)O)C[C@@H](O)[C@H]1O [Chlorogenic acid]

same assay, conditions: [M+Na-2H]-; instrument: DT; single field, calibrated with Agilent tune mix (Agilent)

collision cross section (N2) | Structure (SMILES)
135.74 Å² | O=C(O)Cc1cccc(O)c1 [3-Hydroxyphenylacetic acid]
205.49 Å² | C[C@H](CCC(=O)NCC(=O)O)[C@H]1CC[C@H]2[C@@H]3CC[C@@H]4C[C@H](O)CC[C@]4(C)[C@H]3CC[C@]12C [Glycolithocholic acid]
129.61 Å² | O=C(O)CCCCC(=O)O [Adipic acid]
152.2 Å² | N[C@@H](CCSSCC[C@H](N)C(=O)O)C(=O)O (racemic) [DL-Homocystine]
173.79 Å² | O=C(/C=C/c1ccc(O)c(O)c1)O[C@@H]1C[C@](O)(C(=O)O)C[C@@H](O)[C@H]1O [Chlorogenic acid]

same assay, conditions: [M+Na]+; instrument: DT; single field, calibrated with Agilent tune mix (Agilent)

collision cross section (N2) | Structure (SMILES)
139 Å² | CC(=O)N[C@@H](CC(=O)O)C(=O)O [N-Acetyl-L-aspartic acid]
192.5 Å² | CCCCC/C=C/C=C1/C(=O)C=C[C@@H]1C/C=C\CCCC(=O)O [15-Deoxy-delta-12,14-PGJ2]
166.3 Å² | CC(=O)N[C@@H](CC(=O)O)C(=O)N[C@@H](CCC(=O)O)C(=O)O [N-Acetylaspartylglutamate (NAAG)]
132.3 Å² | NC(=O)NCCC(=O)O [3-Ureidopropionate]

same assay, conditions: [M-H2O-H]-; instrument: DT; single field, calibrated with Agilent tune mix (Agilent)

collision cross section (N2) | Structure (SMILES)
156.77 Å² | CC(=O)N[C@@H](CC(=O)O)C(=O)N[C@@H](CCC(=O)O)C(=O)O [N-Acetylaspartylglutamate]

same assay, conditions: [M-H]-; instrument: DT; single field, calibrated with Agilent tune mix (Agilent)

collision cross section (N2) | Structure (SMILES)
143.97 Å² | CCO[C@@H]1O[C@H](C(=O)O)[C@@H](O)[C@H](O)[C@H]1O [Ethyl glucuronide]
129.21 Å² | CC(=O)N[C@@H](CC(=O)O)C(=O)O [N-Acetyl-L-aspartic acid]
127.48 Å² | CC(C)CCC(=O)O [Isocaproic acid]
151.17 Å² | O=C(O)CN(CCN(CC(=O)O)CC(=O)O)CC(=O)O [EDTA]
199.95 Å² | C[C@H](CCC(=O)O)[C@H]1CC[C@H]2[C@@H]3CC[C@@H]4C[C@H](O)CC[C@]4(C)[C@H]3CC[C@]12C [Lithocholic acid]
174.95 Å² | CCCCCC/C=C/CCCCCCCCCC(=O)O [trans-Vaccenic acid]
138.14 Å² | CC(C)CC(=O)NCC(=O)O [Isovalerylglycine]
124.5 Å² | O=C(O)c1c[nH]c2ccccc12 [Indole-3-carboxylic acid]
141.62 Å² | CCCCCCC(N)C(=O)O (racemic) [DL-2-Aminooctanoic acid]
187.3 Å² | O=c1nc[nH]c2c1ncn2[C@@H]1O[C@H](COP(=O)(O)OP(=O)(O)OP(=O)(O)O)[C@@H](O)[C@H]1O [Inosine triphosphate]
118.78 Å² | O=C(O)/C=C/c1cnc[nH]1 [Urocanic acid]
268.72 Å² | CCCCCCCC(=O)SCCNC(=O)CCNC(=O)[C@H](O)C(C)(C)COP(=O)(O)OP(=O)(O)OC[C@H]1O[C@@H](n2cnc3c(N)ncnc32)[C@H](O)[C@@H]1OP(=O)(O)O [Octanoyl-CoA]
124.86 Å² | O=P(O)(O)OCC(O)CO (centres undefined) [Glycerol 3-phosphate]
138.2 Å² | NC(=NCCCC(N)C(=O)O)NO (centres undefined) [N-(omega)-Hydroxyarginine]
139.4 Å² | O=C(O)C(O)Cc1ccc(O)cc1 (centres undefined) [Hydroxyphenyllactic acid]
132.07 Å² | CC(C)C(=O)NCC(=O)O [Isobutyrylglycine]
159.21 Å² | Cn1cnc2c(ncn2[C@@H]2O[C@H](CO)[C@@H](O)[C@H]2O)c1=N [1-Methyladenosine]
158.98 Å² | O=c1c(O)c(-c2ccc(O)c(O)c2)oc2cc(O)cc(O)c12 [Quercetin]
117.08 Å² | c1ccc2[nH]ccc2c1 [Indole]
134.74 Å² | O=C(O)C(O)Cc1ccccc1 (racemic) [DL-3-Phenyllactic acid]
123.66 Å² | CC(O)(CC(=O)O)CC(=O)O [3-Hydorxy-3-methylglutaric acid]

Structure (SMILES) | collision cross section (N2)
C[C@]12CCC(=O)C=C1CC[C@@H]1[C@@H]2CC[C@]2(C)C(=O)CC[C@@H]12 [Androstendione] | 172.77 Å²

details: [M+H]+; instrument: DT; single field, calibrated with ESI Low Concentration Tuning Mix (Agilent)

collision cross section (N2) | Structure (SMILES)
124.4 Å² | NC(=O)c1ccccc1O [SALICYLAMIDE]
123.2 Å² | CN1CC(=O)N=C1N [CREATININE]
149.3 Å² and 149.6 Å² | Nc1ccccc1C(=O)CC(N)C(=O)O (centres undefined) [KYNURENINE]
138.1 Å² and 141.4 Å² | N[C@H]1C(O)O[C@H](CO)[C@@H](O)[C@@H]1O (some centres undefined) [GLUCOSAMINE]
188.5 Å² | Cc1cc2nc3c(=O)[nH]c(=O)nc-3n(C[C@H](O)[C@H](O)[C@H](O)CO)c2cc1C [RIBOFLAVIN]
134.4 Å² | Cc1ncc(CO)c(CO)c1O [PYRIDOXINE]
196.9 Å² | CC(=O)OCC(=O)[C@H]1CC[C@H]2[C@@H]3CCC4=CC(=O)CC[C@]4(C)[C@H]3CC[C@]12C [DEOXYCORTICOSTERONE ACETATE]

same assay, conditions: [M+Na]+; instrument: DT; single field, calibrated with ESI Low Concentration Tuning Mix (Agilent)

collision cross section (N2) | Structure (SMILES)
132.8 Å² | CN1CC(=O)N=C1N [CREATININE]
152.8 Å² and 153.1 Å² | Nc1ccccc1C(=O)CC(N)C(=O)O (centres undefined) [KYNURENINE]
143.5 Å² and 146.5 Å² | N[C@H]1C(O)O[C@H](CO)[C@@H](O)[C@@H]1O (some centres undefined) [GLUCOSAMINE]
135.2 Å² | OC1OC[C@@H](O)[C@@H](O)[C@H]1O (some centres undefined) [RIBOSE]

same assay, conditions: [M-H]-; instrument: DT; single field, calibrated with ESI Low Concentration Tuning Mix (Agilent)

collision cross section (N2) | Structure (SMILES)
121.1 Å² | NC(=O)c1ccccc1O [SALICYLAMIDE]
118.5 Å² | CN1CC(=O)N=C1N [CREATININE]
186.1 Å² | Cc1cc2nc3c(=O)[nH]c(=O)nc-3n(C[C@H](O)[C@H](O)[C@H](O)CO)c2cc1C [RIBOFLAVIN]
132.4 Å² | Cc1ncc(CO)c(CO)c1O [PYRIDOXINE]

details: [M+H]+; instrument: TW; calibrated with polyalanine and drug standards

collision cross section (N2) | Structure (SMILES)
122.2 Å² | NC(=O)c1ccccc1O [SALICYLAMIDE]
120.2 Å² | CN1CC(=O)N=C1N [CREATININE]
146 Å² | Nc1ccccc1C(=O)CC(N)C(=O)O (centres undefined) [KYNURENINE]
145.2 Å² | N[C@H]1C(O)O[C@H](CO)[C@@H](O)[C@@H]1O (some centres undefined) [GLUCOSAMINE]
184.9 Å² | Cc1cc2nc3c(=O)[nH]c(=O)nc-3n(C[C@H](O)[C@H](O)[C@H](O)CO)c2cc1C [RIBOFLAVIN]
132.3 Å² | Cc1ncc(CO)c(CO)c1O [PYRIDOXINE]
